Reference: patent US20230346670A1, “Prebiotic Oral Care Compositions and Methods” (Colgate-Palmolive Company, priority 2020, published 2023)

Key:
Assay type in all cases: cell-based
[1] = system: human oral keratinocytes (HOK-18A); assay: Inflammatory mediator gene expression in keratinocytes exposed to substrate-treated biofilms (SYBR RT-qPCR); conditions: relative to control, n = 3
Protocol: Cultures of immortalized human oral keratinocytes (HOK-18A) are grown. […] The IL-8 levels in the cellular supernatant are determined as well. RNA is converted to cDNA and relative expression of inflammatory mediator genes is determined as described above with respect to the cellular housekeeping gene β-actin.
In HOKs exposed to substrate-treated (substrate concentrations of […]) multi-species biofilms, there are mostly decreases in inflammatory mediator gene expression as measured via SYBR RT-qPCR, the results of which are detailed in Table 7:
Fold changes in inflammatory mediator gene expression from human oral keratinocytes (HOK-18A) exposed to substrate-treated multi-species biofilms are determined relatively to the control through the 2^^-ΔΔCt method and are shown as the geometric mean (C.I.) (n = 3) of the 2^^-ΔΔCt values. All substrates are dissolved in PBS at a concentration of 1 M (upper part) or 1%(w/v) (lower part). Values between 0 and 1 represent relative downregulation, values >1 represent relative upregulation.

S. oralis = assay: Multi-species biofilm composition, absolute abundance (Geq/mL); conditions: repeated rinsing
Protocol: (§1) Biofilms are grown vertically on Calcium Deficient Hydroxyapatite (CAD-HA) disks (Hitemco Medical, Old Bethpage, USA) using the Amsterdam Active Adhesion model. Biofilms are allowed to establish during 24 h (37° C., 170 rpm) under microaerophilic conditions (6% O2, 7% CO2, 7% H2, 80% N2). After this 24 h, disks are rinsed 3 times a day for 3 minutes (RT, 250 rpm), for 3 consecutive days, by transferring the lid containing the disks to a new 24-well plate containing 2 mL/well of the appropriate substrate solution. As a negative control, PBS (pH 5.7) without substrate supplementation is used.
(§2) N-acetyl-D-glucosamine (NADG), α-D-lactose, D-(+)-trehalose and D-(+)-raffinose are selected to determine their effects on multi-species biofilm composition. Repeated rinsing of the biofilms with the substrates at a concentration of 1 M results in a significant decrease in absolute numbers in at least four of the pathogenic bacterial species tested in the assay, in comparison to the control, the results of which are described in Table 1 below. Note, NADG decreased absolute numbers of S. sobrinus. Absolute abundances of bacterial species are shown as mean ± SD (n = 3) logarithmic values of the genome equivalents per millilitre (log(Geq/mL)).

S. mitis = assay: as above; conditions: repeated rinsing
Protocol: as §1, §2

S. sobrinus = assay: as above; conditions: repeated rinsing
Protocol: as §1, §2

P. gingivalis = assay: as above; conditions: repeated rinsing
Protocol: as §1, §2

A. naeslundii = assay: as above; conditions: repeated rinsing
Protocol: as §1, §2

P. intermedia = assay: as above; conditions: repeated rinsing
Protocol: as §1, §2

A. actinomycetemcomitans = assay: as above; conditions: repeated rinsing
Protocol: as §1, §2

S. gordonii = assay: as above; conditions: repeated rinsing
Protocol: as §1, §2

[2] = system: multi-species biofilm (beneficial/commensal species, periodontal pathogens, cariogenic pathogens); assay: Multi-species biofilm composition, relative proportions and group changes
Protocol: Biofilms are grown vertically on Calcium Deficient Hydroxyapatite (CAD-HA) disks (Hitemco Medical, Old Bethpage, USA) using the Amsterdam Active Adhesion model. […] After this 24 h, disks are rinsed 3 times a day for 3 minutes (RT, 250 rpm), for 3 consecutive days, by transferring the lid containing the disks to a new 24-well plate containing 2 mL/well of the appropriate substrate solution. As a negative control, PBS (pH 5.7) without substrate supplementation is used. N-acetyl-D-glucosamine (NADG), α-D-lactose, D-(+)-trehalose and D-(+)-raffinose are selected to determine their effects on multi-species biofilm composition. Repeated rinsing of the biofilms with the substrates at a concentration of 1 M results in a significant decrease in absolute numbers in at least four of the pathogenic bacterial species tested in the assay, in comparison to the control, the results of which are described in Table 1 below. Note, NADG decreased absolute numbers of S. sobrinus. Absolute abundances of bacterial species are shown as mean ± SD (n = 3) logarithmic values of the genome equivalents per millilitre (log(Geq/mL)).

S. mutans = assay: Multi-species biofilm composition, absolute abundance (Geq/mL); conditions: repeated rinsing
Protocol: as §1
(§3) N-acetyl-D-glucosamine (NADG), α-D-lactose, D-(+)-trehalose and D-(+)-raffinose are selected to determine their effects on multi-species biofilm composition. […] decrease in absolute numbers in at least four of the pathogenic bacterial species tested in the assay, in comparison to the control, the results of which are described in Table 1 below. Note, NADG decreased absolute numbers of S. sobrinus. Absolute abundances of bacterial species are shown as mean ± SD (n = 3) logarithmic values of the genome equivalents per millilitre (log(Geq/mL)).

A. viscosus = assay: as above; conditions: for absolute abundance of A. viscosus (Av), mean ± SD log (Geq/mL): repeated rinsing
Protocol: as §1, §3

S. sanguinis = assay: as above; conditions: repeated rinsing
Protocol: as §1, §3

V. parvula = assay: as above; conditions: for absolute abundance of V. parvula (VP), mean ± SD log (Geq/mL): repeated rinsing
Protocol: as §1, §3

F. nucleatum = assay: as above; conditions: repeated rinsing
Protocol: as §1, §3

S. salivarius = assay: as above; conditions: repeated rinsing
Protocol: as §1, §3

[3] = HOK-18A exposed to biofilms treated with substrate 1% (w/v)
[4] = HOK-18A exposed to biofilms treated with substrate 1 M
[5] = Table 1a, substrate 1 M, listed as D-(+)-trehalose
[6] = Table 3, separate experiments, concentration not given

**Q.** Which results are given for `OC[C@H]1O[C@H](O[C@H]2O[C@H](CO)[C@@H](O)[C@H](O)[C@H]2O)[C@H](O)[C@@H](O)[C@@H]1O` [D-trehalose, D-(+)-trehalose]?
**A.** fold change in IL-1β gene expression, geometric mean (C.I.) [1, 3]: 1.06 (0.55-2.06) fold; fold change in IL-6 gene expression, geometric mean (C.I.) [1, 3]: 1.00 (0.46-2.17) fold; fold change in IL-8 gene expression, geometric mean (C.I.) [1, 3]: 1.32 (0.89-1.94)^∗ fold; fold change in MMP-8 gene expression, geometric mean (C.I.) [1, 3]: 0.66 (0.46-0.93) fold; fold change in TNF-α gene expression, geometric mean (C.I.) [1, 3]: 0.94 (0.54-1.64) fold; fold change in IL-1β gene expression, geometric mean (C.I.) [1, 4]: 0.79 (0.45-1.38) fold; fold change in IL-6 gene expression, geometric mean (C.I.) [1, 4]: 1.27 (0.11-14.86) fold; fold change in IL-8 gene expression, geometric mean (C.I.) [1, 4]: 0.22 (0.15-0.34)^∗ fold; fold change in MMP-8 gene expression, geometric mean (C.I.) [1, 4]: 0.81 (0.68-0.95) fold; fold change in TNF-α gene expression, geometric mean (C.I.) [1, 4]: 0.66 (0.41-1.06)^∗ fold; absolute abundance of S. oralis, mean ± SD log (Geq/mL) (S. oralis; substrate 1% (w/v)): 6.59 ± 0.42 log (Geq/mL); absolute abundance of S. oralis, mean ± SD log (Geq/mL) (S. oralis; substrate 1 M in PBS, n = 3): 6.71 ± 0.48 log (Geq/mL); absolute abundance of S. mitis, mean ± SD log (Geq/mL) (S. mitis; substrate 1% (w/v)): 2.65 ± 0.00 log (Geq/mL); absolute abundance of S. mitis, mean ± SD log (Geq/mL) (S. mitis; substrate 1 M in PBS, n = 3): 3.15 ± 0.71 log (Geq/mL); absolute abundance of S. sobrinus, mean ± SD log (Geq/mL) (S. sobrinus; substrate 1% (w/v)): 5.27 ± 0.19 log (Geq/mL); absolute abundance of S. sobrinus, mean ± SD log (Geq/mL) (S. sobrinus; substrate 1 M in PBS, n = 3): 7.44 ± 0.18^∗ log (Geq/mL); absolute abundance of P. gingivalis (Pg), mean ± SD log (Geq/mL) (P. gingivalis; substrate 1% (w/v)): 7.05 ± 0.19 log (Geq/mL); absolute abundance of P. gingivalis (Pg), mean ± SD log (Geq/mL) (P. gingivalis; substrate 1 M in PBS, n = 3): 4.37 ± 0.29^∗ log (Geq/mL); absolute abundance of A. naeslundii (An), mean ± SD log (Geq/mL) (A. naeslundii; substrate 1% (w/v)): 7.6 ± 0.15 log (Geq/mL); absolute abundance of A. naeslundii (An), mean ± SD log (Geq/mL) (A. naeslundii; substrate 1 M in PBS, n = 3): 4.81 ± 0.47^∗ log (Geq/mL); absolute abundance of P. intermedia (Pi), mean ± SD log (Geq/mL) (P. intermedia; substrate 1% (w/v)): 7.88 ± 0.33 log (Geq/mL); absolute abundance of P. intermedia (Pi), mean ± SD log (Geq/mL) (P. intermedia; substrate 1 M in PBS, n = 3): 4.47 ± 0.60^∗ log (Geq/mL); absolute abundance of A. actinomycetemcomitans (Aa), mean ± SD log (Geq/mL) (A. actinomycetemcomitans; substrate 1% (w/v)): 9.28 ± 0.43 log (Geq/mL); absolute abundance of A. actinomycetemcomitans (Aa), mean ± SD log (Geq/mL) (A. actinomycetemcomitans; substrate 1 M in PBS, n = 3): 7.86 ± 0.22^∗ log (Geq/mL); absolute abundance of S. gordonii, mean ± SD log (Geq/mL) (S. gordonii; substrate 1% (w/v)): 8.45 ± 0.27 log (Geq/mL); absolute abundance of S. gordonii, mean ± SD log (Geq/mL) (S. gordonii; substrate 1 M in PBS, n = 3): 9.39 ± 0.31 log (Geq/mL); relative proportion of beneficial or commensal species in biofilm ([2]; Table 1a, substrate 1 M): 88.98 (+/- 9.12)^∗ % (Geq/mL); relative proportion of cariogenic pathogens in biofilm ([2]; Table 1a, substrate 1 M): 9.22 (+/- 8.55) % (Geq/mL); relative proportion of periodontal pathogens in biofilm ([2]; Table 1a, substrate 1 M): 1.80 (+/- 1.04)^∗ % (Geq/mL); relative proportion of beneficial or commensal species in biofilm [2, 5]: 88.98±9.12 % (Geq/mL); relative proportion of cariogenic pathogens in biofilm [2, 5]: 9.22±8.55 % (Geq/mL); relative proportion of periodontal pathogens in biofilm [2, 5]: 1.80±1.04 % (Geq/mL); relative proportion of beneficials/commensals in biofilm [2, 6]: 73.55 (+/- 2.84) % (Geq/mL); relative proportion of cariogenic pathogens in biofilm [2, 6]: 0.21 (+/- 0.05) % (Geq/mL); relative proportion of periodontal pathogens in biofilm [2, 6]: 26.23 (+/- 2.88) % (Geq/mL); absolute abundance of S. mutans, mean ± SD log (Geq/mL) (S. mutans; substrate 1% (w/v)): 7.55 ± 0.25 log (Geq/mL); absolute abundance of S. mutans, mean ± SD log (Geq/mL) (S. mutans; substrate 1 M in PBS, n = 3): 8.50 ± 0.29^∗ log (Geq/mL); absolute abundance of A. viscosus (Av), mean ± SD log (Geq/mL) (A. viscosus; substrate 1% (w/v)): 8.04 ± 0.28 log (Geq/mL); decrease in A. viscosus numbers in comparison to the control (A. viscosus; substrate 1 M): 1.9-2.5 log(Geq/mL); absolute abundance of A. viscosus (Av), mean ± SD log (Geq/mL) (A. viscosus; substrate 1 M in PBS, n = 3): 6.05 ± 1.12^∗ log (Geq/mL); absolute abundance of S. sanguinis, mean ± SD log (Geq/mL) (S. sanguinis; substrate 1% (w/v)): 8.42 ± 0.43 log (Geq/mL); absolute abundance of S. sanguinis, mean ± SD log (Geq/mL) (S. sanguinis; substrate 1 M in PBS, n = 3): 6.43 ± 0.97 log (Geq/mL); absolute abundance of V. parvula (VP), mean ± SD log (Geq/mL) (V. parvula; substrate 1% (w/v)): 10.07 ± 0.28 log (Geq/mL); reduction of V. parvula numbers in comparison to the control (V. parvula; substrate 1 M): ~ 0.7 log(Geq/mL); absolute abundance of V. parvula (VP), mean ± SD log (Geq/mL) (V. parvula; substrate 1 M in PBS, n = 3): 9.44 ± 0.25^∗ log (Geq/mL); absolute abundance of F. nucleatum (Fn), mean ± SD log (Geq/mL) (F. nucleatum; substrate 1% (w/v)): 9.35 ± 0.20 log (Geq/mL); absolute abundance of F. nucleatum (Fn), mean ± SD log (Geq/mL) (F. nucleatum; substrate 1 M in PBS, n = 3): 6.51 ± 0.43^∗ log (Geq/mL); absolute abundance of S. salivarius, mean ± SD log (Geq/mL) (S. salivarius; substrate 1% (w/v)): 2.65 ± 0.00 log (Geq/mL); absolute abundance of S. salivarius, mean ± SD log (Geq/mL) (S. salivarius; substrate 1 M in PBS, n = 3): 6.19 ± 0.07^∗ log (Geq/mL)
